Laboratory results reported in patent US20070049514A1, “Resonance modulator for diagnosis and therapy” (priority 2003, published 2007).
Values joined by “and” are separate entries in the source; they are usually repeats but may differ in a detail not shown here. Equal values may be shown once. “Also recorded” adds a separate entry of the source. Read-outs that look alike come from different tables or passages of the source.

Experiments:
[1] = test system: malignant squamous cell cancer (SCCA-HM); test: BDP-DNP on squamous cell cancer with T-lymphocytes in tissue culture; format: cell-based
Text: FIG. 15 describes the impact of BDP-DNP on cell growth for malignant squamous cell cancer (SCCA-HM) growing in culture (pre-post Rx). On the left are large lacey star shaped squamous 15 cancer cells associated with small white clumps of naïve T-lymphocytes. […] The dark background seen on the right is due to the color of the drug. All the fluffy white cells are large clumps of activated lymphocytes.

lymphocytes in culture [2] = test: Lymphocyte activation, tritiated thymidine uptake; format: cell-based; conditions: uptake of tritiated thymidine
Protocol: (§1) Once candidates have been selected as potential resonance modulators, they can be easily assayed to determine whether they induce lymphocyte blastogenesis and activate lymphocytes. Such an assay is found in Morgan et al., Anticancer Research 13:1763-1768 (1993), which is incorporated by reference. See also Janossy et al., Clin. Exp. Immunol. 14:581-596 (1973). Briefly, uptake of [^3]thymidine was measured for lymphocytes in culture. Lymphocytes were cultured in RPMI-1640 tissue culture medium supplemented with 10% fetal bovine serum (FBS). Following stimulation with the resonance modulator, tritiated thymidine (2-20 μCi/ml, specific activity 2 Ci/mmol) was added to the cells and incubated with them. The uptake of [^3]thymidine was stopped by the addition of cold 10% trichloroacetic acid after a selected period of time, and the radioactivity of the samples measured in a scintillation counter. The % lymphoblast was determined by counting the number of blasts per high powered field (hpf) while % activation was determined by uptake of the tritiated thymidine. The increase voltage was measured with an oscilloscope as in Example 7.

lymphocytes in culture [3] = test: Lymphocyte blastogenesis, blasts per high powered field; format: cell-based; conditions: number of blasts per high powered field
Protocol: as §1

PTP CD45 receptor = biological target: T1, PTP CD45 receptor (Homo sapiens, UniProt P08575); test: Binding to and up-regulation of PTP CD45 receptor
T1 sequence (P08575 26-1306): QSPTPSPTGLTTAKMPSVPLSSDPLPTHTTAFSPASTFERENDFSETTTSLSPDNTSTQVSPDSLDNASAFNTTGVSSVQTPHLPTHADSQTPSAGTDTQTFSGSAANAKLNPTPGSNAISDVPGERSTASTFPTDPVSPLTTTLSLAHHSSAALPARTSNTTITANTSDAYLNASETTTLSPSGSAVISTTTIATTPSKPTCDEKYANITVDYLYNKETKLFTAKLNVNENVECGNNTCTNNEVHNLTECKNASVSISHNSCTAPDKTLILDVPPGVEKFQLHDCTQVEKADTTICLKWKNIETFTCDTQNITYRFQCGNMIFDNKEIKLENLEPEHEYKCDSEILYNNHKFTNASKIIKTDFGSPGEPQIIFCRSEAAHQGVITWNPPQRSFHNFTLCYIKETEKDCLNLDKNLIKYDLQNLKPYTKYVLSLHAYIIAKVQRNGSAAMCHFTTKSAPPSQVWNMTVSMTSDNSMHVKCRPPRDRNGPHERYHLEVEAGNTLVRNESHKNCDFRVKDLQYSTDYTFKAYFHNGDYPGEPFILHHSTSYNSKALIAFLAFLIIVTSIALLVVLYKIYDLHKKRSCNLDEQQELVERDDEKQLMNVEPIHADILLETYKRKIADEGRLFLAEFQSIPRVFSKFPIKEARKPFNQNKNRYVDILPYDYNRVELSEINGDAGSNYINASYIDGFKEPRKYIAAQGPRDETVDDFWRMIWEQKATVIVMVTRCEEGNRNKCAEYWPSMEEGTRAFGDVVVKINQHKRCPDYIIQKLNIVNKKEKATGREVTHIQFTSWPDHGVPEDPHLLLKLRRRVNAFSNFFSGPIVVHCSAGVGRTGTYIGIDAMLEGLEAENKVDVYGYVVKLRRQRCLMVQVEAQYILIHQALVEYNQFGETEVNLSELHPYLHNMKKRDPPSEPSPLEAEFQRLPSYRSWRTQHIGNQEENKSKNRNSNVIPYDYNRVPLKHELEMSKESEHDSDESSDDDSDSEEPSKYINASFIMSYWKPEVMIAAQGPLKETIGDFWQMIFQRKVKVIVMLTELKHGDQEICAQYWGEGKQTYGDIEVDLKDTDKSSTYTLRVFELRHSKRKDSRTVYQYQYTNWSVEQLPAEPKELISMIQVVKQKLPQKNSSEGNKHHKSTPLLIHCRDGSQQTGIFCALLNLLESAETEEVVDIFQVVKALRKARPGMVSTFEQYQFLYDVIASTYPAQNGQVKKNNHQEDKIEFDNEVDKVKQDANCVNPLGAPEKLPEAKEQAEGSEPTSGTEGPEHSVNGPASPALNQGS

[4] = test system: T-lymphocytes (CD markers); test: A-007 0.25% gel intravaginally, T-cell profile (tissue/blood); format: in vivo, Humans; design: key: NC: no change; conditions: per patient; intravaginal gel
[5] = test system: T-lymphocytes (CD4+, CD3+, CD8+, CD45+) and CD11c+ dendritic cells in skin; test: Histochemical assays of biopsies of human skin topically treated with A-007; format: in vivo
HPV = test: A-007 0.25% gel intravaginally, HPV response (titers); format: in vivo, Humans; design: key: NC: no change; conditions: per patient, intravaginal gel
[6] = as seen by crystallography (Klein et al. 1993); cited from earlier work
[7] = test system: benign fibroblasts or healthy epithelial cells; test: A-007 induced cell death in non-HPV cells; format: cell-based; conditions: cells not containing or transformed by HPV
[8] = test system: Cutaneous Metastases (cancer lesions); test: Phase I/II trials, topical A-007 0.25% gel on cutaneous metastases; format: in vivo, human
[9] = test system: anal squamous cell cancer; test: A-007 0.25% gel intra-anally, cancer response and toxicity; format: in vivo, human; conditions: per patient
lymphoma = test: A-007 gel on the skin of a patient with lymphoma; format: in vivo, human; conditions: 0.25% gel (0.5 g)
[10] = test system: T-lymphocytes (CD markers); test: A-007 0.25% gel intra-anally, T-cell profile (tissue/blood); format: in vivo, human; design: key: NC: no change; conditions: intra-anal gel
[11] = test system: cervical early cancer-in-situ; test: A-007 gel in cervical cancer-in-situ (single patient); format: in vivo, human; conditions: 0.25% gel (2 g) daily for 5 days
Text: The responses are associated with increased organization of T-lymphocyte patterns and disappearance of cancer cells.

[12] = Absorption and disposition of A-007 (blood detection, skin absorption, excretion)
[13] = test system: vaginal cancer / cervical cancer; test: A-007 0.25% gel intravaginally, cancer response and toxicity; conditions: per patient
HeLa cancer cells (HPV+) = test: HeLa cancer cells incubated with A-007 crystals; format: cell-based; conditions: incubated with crystals for 24 hours
Text: Then through cell membrane chemical interphase and modulation of the PTP receptors the cells down regulate, darken with pyknotic changes associated with DNA agglutination resulting in death (lower clumped dark staining cells). The attraction that the crystals have for the cells is associated with intramolecular resonance and associated magnetic patterns described in FIGS. 3 and 4.

[14] = test system: naive human lymphocytes (obtained from peripheral blood); test: Aggregation of naive lymphocytes around an A-007 crystal in tissue culture; format: cell-based; conditions: 0.5 mg crystals in RPMI, one hour
Text: The ability of an agent to induce aggregation of naïve lymphocytes in culture around a test agent is another factor to be considered in determining whether the agent is a resonance modulator suitable for use in the methods disclosed herein. The ability to induce aggregation within one hour is a particularly strong indication that the compound is suitable for further investigation. “Aggregation” refers to a substantial increase in the number of lymphocytes, such as an increase visible by microscopy, as in FIG. 5.

CD45+ receptor = CD45+ receptor modulation in lymphocytes and dendritic cells; format: cell-based, human
Text: CD45+ is expressed on dendritic cells, lymphocytes, monocytes, and leukocytes, as well as some neoplastic cells, as a protein tyrosine phosphatase (TP), which together with other members of the PTPs, are responsible for […] tyrosine residues. Blockade of the CD45+ receptor sites with anti-CD45 antibodies inhibits T-cell activation and prevents mitogen (lectin) activation of naïve T-cells. CD45+ receptor surfaces contain arginine, serine/threonine and cysteine moieties, which can bind to and/or transfer natural ligands to the surface of APCs, as well as hydrolyze tyrosyl phosphates. […] Different resonance states of A-007 are capable of interacting with different immune cells.

[15] = 0.4 mcg/mL, 24 hours incubation
[16] = 53 people treated with topical 0.25% gel
[17] = Breast, 0.25% gel topically twice daily

O=[N+]([O-])c1ccc(NN=C2C(=Cc3ccccc3)CCCC2=Cc2ccccc2)c([N+](=O)[O-])c1 [Compound 38, 2,6-Dibenzylidenecyclohexanone-2,4-dinitrophenylhydrazone]
cancer cells after treatment [1, 15]: No cancer cells are detected | effect on naïve T-lymphocytes in the culture [1, 15]: impressive stimulation | immune modulating anticancer activities vs. A-007 ([1]; relative to A-007): 100 fold | % Activation (lymphocytes in culture [2]): 100% | % Lymphoblast (lymphocytes in culture [3]): 100% | binding affinities to PTP CD45 receptor (PTP CD45 receptor): improved binding affinities | effect on PTP CD45 receptor (PTP CD45 receptor): upregulates the receptor | binding affinities to PTP CD45 receptor (PTP CD45 receptor; listed as structure 38): excellent binding affinities

O=C1c2ccccc2C(=NNc2ccc([N+](=O)[O-])cc2[N+](=O)[O-])c2ccc(O)c(O)c21 [DNPA, 10-[(2,4-dinitrophenyl)hydrazono]-1,2-dihydroxy-10H-anthracen-9-one]
% Activation (lymphocytes in culture [2]): 75% | % Lymphoblast (lymphocytes in culture [3]): 50%

O=[N+]([O-])c1ccc(NN=C(c2ccc(O)cc2)c2ccc(O)cc2)c([N+](=O)[O-])c1 [Compound A-007, 4,4′-dihydroxybenzophenone-2,4-dinitrophenylhydrazone]
T-Cell Profile (Tissue/Blood) CD8/4+ [4]: NC | T-lymphocyte infiltrates (CD4+, CD3+, CD8+, CD45+) in treated skin ([5]; biopsies during topical treatment): increased infiltrates | CD11c+ dendritic cell infiltrates in treated skin ([5]; treated areas): Increased skin infiltrates | HPV (Response), changes in HP titers (HPV): +(50%) | HPV (Response), changes in HP titers (HPV; CR as in Table 1): +(NC) | hydrogen bond donors [6]: greater than 5 | A-007 induced cell death [7]: not observed | complete responses (number) [8, 16]: ten | objective remissions [8, 16]: 37% | Duration ([8]; Angiosarcoma): 0 wks | Response: number NR ([8]; Angiosarcoma): 2 NR | Toxicities ([8]; Angiosarcoma): 0 | Duration ([8]; Anogenital): 1.8+ yrs | Response: number CR ([8]; Anogenital): 5 | Response: number PR ([8]; Anogenital): 2 | Toxicities ([8]; Anogenital): 0 | Toxicities (number, skin, mild) ([8]; Breast): 7 skin (mild) | Response: number CR [8, 17]: 5 | Response: number PR [8, 17]: 7 | Response: number stable [8, 17]: 6 stable | Duration ([8]; H/N (Sq. Cell)): 0 wks | Toxicities ([8]; H/N (Sq. Cell)): 0 | Duration ([8]; KS (Kaposi's sarcoma)): 11 wks | Response: number NR ([8]; KS (Kaposi's sarcoma)): 2 PR, 2 NR | Response: number PR ([8]; KS (Kaposi's sarcoma)): 2 PR, 2 NR | Toxicities ([8]; KS (Kaposi's sarcoma)): 0 | Duration ([8]; Melanoma): 3-15 wks | Response: number NR ([8]; Melanoma): 3 | Toxicities (number, skin, mild) ([8]; Melanoma): 2 Skin (mild) | Response: number PR ([8]; Melanoma, 0.25% gel topically twice daily): 1 | Duration ([8]; NHL): 3.5 yrs | Toxicities ([8]; NHL): 0 | Response: number PR ([8]; NHL (non-Hodgkins' lymphoma)): 1 PR | local or systemic toxicity ([8]; topical A-007): substantial absence of A-007 induced local or systemic toxicity | % Activation (lymphocytes in culture [2]): 100% | % Lymphoblast (lymphocytes in culture [3]): 75% | Response (Cancer) ([9]; gel intra-anally daily for five days): 0% (4×) and 100% | Toxicity ([9]; intra-anal gel): None | peripheral lymphocyte profile (total lymphocyte count) (lymphoma): improvement | T-Cell Profile (Tissue/Blood) All others ([10]; patient A-3): NC | T-Cell Profile (Tissue/Blood) CD4/8 ([10]; patient A-5): NC | T-Cell Profile (Tissue/Blood) CD45+ ([10]; per patient): (NC) | duration of cure [11]: over one year | response of cervical carcinoma-in-situ (biopsy) [11]: disappearance of the cancer cells; also recorded: loss of malignant changes | excretion ([12]; administered to a human subject): excreted substantially unchanged | absorption from/through the skin ([12]; applied to skin, animal and human studies): not absorbed from the skin; also recorded: substantially not absorbed through the skin | absorption into the blood ([12]; in vivo): not absorbed into the blood | detection of A-007 in blood ([12]; subjects treated with topical A-007): not been detected in the blood | Response (Cancer) ([13]; 2 g gel intravaginally daily for five days): 75% and >75% | Toxicity ([13]; intravaginal gel): None | effect on HeLa cancer cells (HeLa cancer cells (HPV+)): undergo necrobiosis and death; also recorded: undergo pyknosis (DNA agglutination and necrosis) and die | aggregation of lymphocytes around crystal [14]: lymphocytes and dendritic cells aggregate around the crystal or pellet | inhibition of CD45+ (CD45+ receptor): does not inhibit or block CD45+ | CD45+ and CD11c+ receptors in human peripheral dendritic cells (CD45+ receptor; A-007-activated DCs): up-regulating both CD45+ and CD11c+ receptors

CC(C)C(=O)Nc1ccc([N+](=O)[O-])c(C(F)(F)F)c1 [Fludamide, reference compound]
% Activation (lymphocytes in culture [2]): 0% | % Lymphoblast (lymphocytes in culture [3]): 0%
